In ChEMBL document CHEMBL1135206, “Albumin affinity tags increase peptide half-life in vivo” (Bioorg Med Chem Lett, 2002):
*1 amine or outer side, *2 acyl side, *3 side chain or, on linkers, in order; H or OH if unused. Where a SMILES comes first, the peptide text is derived from it. Bridges are numbered along the chain shown (N, C = ends). [ ]: non-standard residue; d: D form. The star is where a group is joined. X3 = C[C@@H](C(=O)[*:2])N(Cc1ccccc1OC(F)(F)F)[*:1]; X5 = C[C@@H](C(=O)[*:2])N(Cc1cccc2ccccc12)[*:1]; 2Naphthylsulfonyl = O=S(=O)(c1ccc2ccccc2c1)*; X2 = O=C(CCC(=O)*)NS(=O)(=O)c1ccc2ccccc2c1; Benzoyl(4-Ph) = O=C(c1ccc(-c2ccccc2)cc1)*; Quinoline3carbonyl = O=C(c1cnc2ccccc2c1)*; X6 = O=C(c1ccc(-c2ccccc2[N+](=O)[O-])o1)*; Mts = Cc1cc(C)c(S(=O)(=O)*)c(C)c1; Quinaldoyl = O=C(c1ccc2ccccc2n1)*; NH(4-Cl-phenyl) = Clc1ccc(N*)cc1; CO = O=C([*:1])[*:2]; X4 = Cc1cccc(N*)c1

What was measured:
[1] = target: T1, Coagulation factor VII (Homo sapiens, UniProt P08709); assay: Inhibition of amino terminally biotinylated E-76 peptide binding to immobilized fVIIa
T1 sequence (P08709 whole entry): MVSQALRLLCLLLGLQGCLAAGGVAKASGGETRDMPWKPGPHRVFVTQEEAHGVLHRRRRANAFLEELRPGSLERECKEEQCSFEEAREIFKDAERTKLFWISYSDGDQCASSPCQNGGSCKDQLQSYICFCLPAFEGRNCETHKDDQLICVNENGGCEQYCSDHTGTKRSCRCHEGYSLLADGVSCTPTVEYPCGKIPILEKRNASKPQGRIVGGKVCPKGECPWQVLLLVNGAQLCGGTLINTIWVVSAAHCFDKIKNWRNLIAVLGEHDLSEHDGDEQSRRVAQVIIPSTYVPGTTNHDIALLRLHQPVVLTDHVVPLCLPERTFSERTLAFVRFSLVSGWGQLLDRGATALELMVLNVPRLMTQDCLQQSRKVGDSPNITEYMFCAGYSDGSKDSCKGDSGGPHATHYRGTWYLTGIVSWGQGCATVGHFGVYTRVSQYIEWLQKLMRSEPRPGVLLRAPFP

[2] = target: Albumin (Homo sapiens, UniProt P02768); assay: In vitro binding affinity for human serum albumin.; design: unit not given here
[3] = Mean retention time in male New Zealand white rabbits after administration via an indwelling catheter in an ear vein at 5 mg/kg; format: ADME, organism-based, Oryctolagus cuniculus; design: dose 5 mg/kg; conditions: rabbit, in vivo, iv
[4] = Clearance in male New Zealand white rabbits after administration via an indwelling catheter in an ear vein at 5 mg/kg; format: ADME, organism-based, Oryctolagus cuniculus; design: dose 5 mg/kg; conditions: rabbit, in vivo, iv
[5] = Plasma half-life in male New Zealand white rabbits after administration via an indwelling catheter in an ear vein at 5 mg/kg; format: ADME, organism-based, Oryctolagus cuniculus; design: dose 5 mg/kg; conditions: rabbit, iv
[6] = Mean retention time in male New Zealand white rabbits after i.v. administration at 2.0 mg/kg; format: ADME, organism-based, Oryctolagus cuniculus; design: dose 2 mg/kg, route intravenous; conditions: rabbit, in vivo, iv
[7] = Plasma half-life in male New Zealand white rabbits after i.v. administration at 2.0 mg/kg; format: ADME, organism-based, Oryctolagus cuniculus; design: dose 2 mg/kg, route intravenous; conditions: rabbit, iv
[8] = Clearance in male New Zealand white rabbits after i.v. administration at 2.0 mg/kg; format: ADME, organism-based, Oryctolagus cuniculus; design: dose 2 mg/kg, route intravenous; conditions: rabbit, in vivo, iv

Sequence of Albumin (P02768 whole entry): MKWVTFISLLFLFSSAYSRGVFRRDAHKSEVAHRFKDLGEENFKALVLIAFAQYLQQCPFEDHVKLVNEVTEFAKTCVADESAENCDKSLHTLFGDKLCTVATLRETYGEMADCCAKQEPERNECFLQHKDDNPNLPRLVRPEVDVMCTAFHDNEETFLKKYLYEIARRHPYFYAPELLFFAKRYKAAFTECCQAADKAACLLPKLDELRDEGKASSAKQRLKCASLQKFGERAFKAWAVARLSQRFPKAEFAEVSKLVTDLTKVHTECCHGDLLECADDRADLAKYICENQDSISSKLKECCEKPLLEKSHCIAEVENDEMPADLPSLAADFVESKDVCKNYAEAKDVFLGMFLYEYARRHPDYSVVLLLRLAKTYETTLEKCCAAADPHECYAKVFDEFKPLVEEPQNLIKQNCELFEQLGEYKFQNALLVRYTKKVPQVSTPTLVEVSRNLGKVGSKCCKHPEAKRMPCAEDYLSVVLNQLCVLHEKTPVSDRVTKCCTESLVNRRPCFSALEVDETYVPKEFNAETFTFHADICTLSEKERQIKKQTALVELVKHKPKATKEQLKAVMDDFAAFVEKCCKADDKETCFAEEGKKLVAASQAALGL

SMILES | IC50 [1] [nM] | Binding affinity [2] | further results
CC[C@H](C)[C@@H]1NC(=O)[C@H](CCCNC(=N)N)NC(=O)[C@@H]2CCCN2C(=O)[C@H](CC(N)=O)NC(=O)[C@H](CC(=O)O)NC(=O)[C@@H](NC(=O)[C@H](CC(C)C)NC(=O)[C@H](C)NS(=O)(=O)c2ccc3ccccc3c2)CSSC[C@@H](C(=O)N[C@@H](CCC(N)=O)C(=O)N[C@@H](Cc2ccccc2)C(=O)N[C@H](C(=O)N[C@@H](CCC(=O)O)C(=O)NCC(N)=O)C(C)C)NC(=O)[C@H](Cc2ccc(O)cc2)NC(=O)[C@H](Cc2c[nH]c3ccccc23)NC(=O)[C@H](CCCNC(=N)N)NC(=O)[C@H](CC(=O)O)NC1=O (2Naphthylsulfonyl-ALCDNPRIDRWYCQFVEG-NH2; disulfide 3-13) | 20.4 | 0.92 | 
CC[C@H](C)[C@@H]1NC(=O)[C@H](CCCN=C(N)N)NC(=O)[C@@H]2CCCN2C(=O)[C@H](CC(N)=O)NC(=O)[C@H](CC(=O)O)NC(=O)[C@@H](NC(=O)[C@H](CC(C)C)NC(=O)[C@H](C)NCc2ccccc2OC(F)(F)F)CSSC[C@@H](C(=O)N[C@@H](CCC(N)=O)C(=O)N[C@@H](Cc2ccccc2)C(=O)N[C@H](C(=O)N[C@@H](CCC(=O)O)C(=O)NCC(N)=O)C(C)C)NC(=O)[C@H](Cc2ccc(O)cc2)NC(=O)[C@H](Cc2c[nH]c3ccccc23)NC(=O)[C@H](CCCN=C(N)N)NC(=O)[C@H](CC(=O)O)NC1=O (H-[X3]LCDNPRIDRWYCQFVEG-NH2; disulfide 3-13) | 13.4 | 0.93 | 
CC[C@H](C)[C@@H]1NC(=O)[C@H](CCCNC(=N)N)NC(=O)[C@@H]2CCCN2C(=O)[C@H](CC(N)=O)NC(=O)[C@H](CC(=O)O)NC(=O)[C@@H](NC(=O)[C@H](CC(C)C)NC(=O)[C@H](C)NCc2cccc3ccccc23)CSSC[C@@H](C(=O)N[C@@H](CCC(N)=O)C(=O)N[C@@H](Cc2ccccc2)C(=O)N[C@H](C(=O)N[C@@H](CCC(=O)O)C(=O)NCC(N)=O)C(C)C)NC(=O)[C@H](Cc2ccc(O)cc2)NC(=O)[C@H](Cc2c[nH]c3ccccc23)NC(=O)[C@H](CCCNC(=N)N)NC(=O)[C@H](CC(=O)O)NC1=O (H-[X5]LCDNPRIDRWYCQFVEG-NH2; disulfide 3-13) | 1.6 | 0.69 | 
CC[C@H](C)[C@@H]1NC(=O)[C@H](CCCNC(=N)N)NC(=O)[C@@H]2CCCN2C(=O)[C@H](CC(N)=O)NC(=O)[C@H](CC(=O)O)NC(=O)[C@@H](NC(=O)[C@H](CC(C)C)NC(=O)[C@H](C)NS(=O)(=O)c2c(C)cc(C)cc2C)CSSC[C@@H](C(=O)N[C@@H](CCC(N)=O)C(=O)N[C@@H](Cc2ccccc2)C(=O)N[C@H](C(=O)N[C@@H](CCC(=O)O)C(=O)NCC(N)=O)C(C)C)NC(=O)[C@H](Cc2ccc(O)cc2)NC(=O)[C@H](Cc2c[nH]c3ccccc23)NC(=O)[C@H](CCCNC(=N)N)NC(=O)[C@H](CC(=O)O)NC1=O (Mts-ALCDNPRIDRWYCQFVEG-NH2; disulfide 3-13) | 10 | 0.82 | 
CC[C@H](C)[C@@H]1NC(=O)[C@H](CCCN=C(N)N)NC(=O)[C@@H]2CCCN2C(=O)[C@H](CC(N)=O)NC(=O)[C@H](CC(=O)O)NC(=O)[C@@H](NC(=O)[C@H](CC(C)C)NC(=O)[C@H](C)NC(=O)c2cnc3ccccc3c2)CSSC[C@@H](C(=O)N[C@@H](CCC(N)=O)C(=O)N[C@@H](Cc2ccccc2)C(=O)N[C@H](C(=O)N[C@@H](CCC(=O)O)C(=O)NCC(N)=O)C(C)C)NC(=O)[C@H](Cc2ccc(O)cc2)NC(=O)[C@H](Cc2c[nH]c3ccccc23)NC(=O)[C@H](CCCN=C(N)N)NC(=O)[C@H](CC(=O)O)NC1=O (Quinoline3carbonyl-ALCDNPRIDRWYCQFVEG-NH2; disulfide 3-13) | 11.8 | 0.64 | 
CC[C@H](C)[C@@H]1NC(=O)[C@H](CCCNC(=N)N)NC(=O)[C@@H]2CCCN2C(=O)[C@H](CC(N)=O)NC(=O)[C@H](CC(=O)O)NC(=O)[C@@H](NC(=O)[C@H](CC(C)C)NC(=O)[C@H](C)NC(=O)c2ccc(-c3ccccc3[N+](=O)[O-])o2)CSSC[C@@H](C(=O)N[C@@H](CCC(N)=O)C(=O)N[C@@H](Cc2ccccc2)C(=O)N[C@H](C(=O)N[C@@H](CCC(=O)O)C(=O)NCC(N)=O)C(C)C)NC(=O)[C@H](Cc2ccc(O)cc2)NC(=O)[C@H](Cc2c[nH]c3ccccc23)NC(=O)[C@H](CCCNC(=N)N)NC(=O)[C@H](CC(=O)O)NC1=O (X6-ALCDNPRIDRWYCQFVEG-NH2; disulfide 3-13) | 1 | 0.79 | 
CC[C@H](C)[C@@H]1NC(=O)[C@H](CCCN=C(N)N)NC(=O)[C@@H]2CCCN2C(=O)[C@H](CC(N)=O)NC(=O)[C@H](CC(=O)O)NC(=O)[C@@H](NC(=O)[C@H](CC(C)C)NC(=O)[C@H](C)NC(=O)c2ccc(-c3ccccc3)cc2)CSSC[C@@H](C(=O)N[C@@H](CCC(N)=O)C(=O)N[C@@H](Cc2ccccc2)C(=O)N[C@H](C(=O)N[C@@H](CCC(=O)O)C(=O)NCC(N)=O)C(C)C)NC(=O)[C@H](Cc2ccc(O)cc2)NC(=O)[C@H](Cc2c[nH]c3ccccc23)NC(=O)[C@H](CCCN=C(N)N)NC(=O)[C@H](CC(=O)O)NC1=O ({Benzoyl(4-Ph)}-ALCDNPRIDRWYCQFVEG-NH2; disulfide 3-13) | 4 | 0.62 | MRT [3]: 17 min; clearance [4]: 4.3 mL/min/kg; half-life [5]: 15 min

Further molecules by falling IC50 [1], results first:

IC50 [1] [nM] | Binding affinity [2] | SMILES | further results
13.4 | 0.65 | CC[C@H](C)[C@@H]1NC(=O)[C@H](CCCN=C(N)N)NC(=O)[C@@H]2CCCN2C(=O)[C@H](CC(N)=O)NC(=O)[C@H](CC(=O)O)NC(=O)[C@@H](NC(=O)[C@H](CC(C)C)NC(=O)[C@H](C)NC(=O)Nc2ccc(Cl)cc2)CSSC[C@@H](C(=O)N[C@@H](CCC(N)=O)C(=O)N[C@@H](Cc2ccccc2)C(=O)N[C@H](C(=O)N[C@@H](CCC(=O)O)C(=O)NCC(N)=O)C(C)C)NC(=O)[C@H](Cc2ccc(O)cc2)NC(=O)[C@H](Cc2c[nH]c3ccccc23)NC(=O)[C@H](CCCN=C(N)N)NC(=O)[C@H](CC(=O)O)NC1=O ({NH(4-Cl-phenyl)-CO}-ALCDNPRIDRWYCQFVEG-NH2; disulfide 3-13) | 
2.9 | 0.64 | CC[C@H](C)[C@@H]1NC(=O)[C@H](CCCN=C(N)N)NC(=O)[C@@H]2CCCN2C(=O)[C@H](CC(N)=O)NC(=O)[C@H](CC(=O)O)NC(=O)[C@@H](NC(=O)[C@H](CC(C)C)NC(=O)[C@H](C)NC(=O)c2ccc3ccccc3n2)CSSC[C@@H](C(=O)N[C@@H](CCC(N)=O)C(=O)N[C@@H](Cc2ccccc2)C(=O)N[C@H](C(=O)N[C@@H](CCC(=O)O)C(=O)NCC(N)=O)C(C)C)NC(=O)[C@H](Cc2ccc(O)cc2)NC(=O)[C@H](Cc2c[nH]c3ccccc23)NC(=O)[C@H](CCCN=C(N)N)NC(=O)[C@H](CC(=O)O)NC1=O (Quinaldoyl-ALCDNPRIDRWYCQFVEG-NH2; disulfide 3-13) | 
1.8 | 0.59 | CC[C@H](C)[C@@H]1NC(=O)[C@H](CCCNC(=N)N)NC(=O)[C@@H]2CCCN2C(=O)[C@H](CC(N)=O)NC(=O)[C@H](CC(=O)O)NC(=O)[C@@H](NC(=O)[C@H](CC(C)C)NC(=O)[C@H](C)NC(=O)Nc2cccc(C)c2)CSSC[C@@H](C(=O)N[C@@H](CCC(N)=O)C(=O)N[C@@H](Cc2ccccc2)C(=O)N[C@H](C(=O)N[C@@H](CCC(=O)O)C(=O)NCC(N)=O)C(C)C)NC(=O)[C@H](Cc2ccc(O)cc2)NC(=O)[C@H](Cc2c[nH]c3ccccc23)NC(=O)[C@H](CCCNC(=N)N)NC(=O)[C@H](CC(=O)O)NC1=O ({X4-CO}-ALCDNPRIDRWYCQFVEG-NH2; disulfide 3-13) | 
1.1 | 0.21 | CC[C@H](C)[C@@H]1NC(=O)[C@H](CCCN=C(N)N)NC(=O)[C@@H]2CCCN2C(=O)[C@H](CC(N)=O)NC(=O)[C@H](CC(=O)O)NC(=O)[C@@H](NC(=O)[C@H](CC(C)C)NC(=O)[C@H](C)NC(C)=O)CSSC[C@@H](C(=O)N[C@@H](CCC(N)=O)C(=O)N[C@@H](Cc2ccccc2)C(=O)N[C@H](C(=O)N[C@@H](CCC(=O)O)C(=O)NCC(N)=O)C(C)C)NC(=O)[C@H](Cc2ccc(O)cc2)NC(=O)[C@H](Cc2c[nH]c3ccccc23)NC(=O)[C@H](CCCN=C(N)N)NC(=O)[C@H](CC(=O)O)NC1=O (Ac-ALCDNPRIDRWYCQFVEG-NH2; disulfide 3-13) | MRT [3]: 3.2 min; clearance [4]: 33 mL/min/kg; half-life [5]: 5 min
1 | 0.97 | CC[C@H](C)[C@@H]1NC(=O)[C@H](CCCN=C(N)N)NC(=O)[C@@H]2CCCN2C(=O)[C@H](CC(N)=O)NC(=O)[C@H](CC(=O)O)NC(=O)[C@@H](NC(=O)[C@H](CC(C)C)NC(=O)[C@H](C)NC(=O)CCC(=O)NS(=O)(=O)c2ccc3ccccc3c2)CSSC[C@@H](C(=O)N[C@@H](CCC(N)=O)C(=O)N[C@@H](Cc2ccccc2)C(=O)N[C@H](C(=O)N[C@@H](CCC(=O)O)C(=O)NCC(N)=O)C(C)C)NC(=O)[C@H](Cc2ccc(O)cc2)NC(=O)[C@H](Cc2c[nH]c3ccccc23)NC(=O)[C@H](CCCN=C(N)N)NC(=O)[C@H](CC(=O)O)NC1=O (X2-ALCDNPRIDRWYCQFVEG-NH2; disulfide 3-13) | MRT [6]: 35 min; half-life [7]: 30 min; clearance [8]: 1.6 mL/min/kg
